Reference: patent US20260285866A1, “MODULATORS OF TRPML, THEIR COMPOSITIONS AND METHODS OF USE” (Caraway Therapeutics, Inc., priority 2024, published 2026)

Key:
Human TRPML3 = molecular target: T1, Human TRPML3 (Homo sapiens, UniProt Q8TDD5); experiment: Fluorescent TRPML3 assay (as for TRPML1); format: cell-based; conditions: fluorescent calcium assay as for TRPML1, TRPML3 subtype
T1 construct: expressed in transfected cells
T1 sequence (Q8TDD5 1-553): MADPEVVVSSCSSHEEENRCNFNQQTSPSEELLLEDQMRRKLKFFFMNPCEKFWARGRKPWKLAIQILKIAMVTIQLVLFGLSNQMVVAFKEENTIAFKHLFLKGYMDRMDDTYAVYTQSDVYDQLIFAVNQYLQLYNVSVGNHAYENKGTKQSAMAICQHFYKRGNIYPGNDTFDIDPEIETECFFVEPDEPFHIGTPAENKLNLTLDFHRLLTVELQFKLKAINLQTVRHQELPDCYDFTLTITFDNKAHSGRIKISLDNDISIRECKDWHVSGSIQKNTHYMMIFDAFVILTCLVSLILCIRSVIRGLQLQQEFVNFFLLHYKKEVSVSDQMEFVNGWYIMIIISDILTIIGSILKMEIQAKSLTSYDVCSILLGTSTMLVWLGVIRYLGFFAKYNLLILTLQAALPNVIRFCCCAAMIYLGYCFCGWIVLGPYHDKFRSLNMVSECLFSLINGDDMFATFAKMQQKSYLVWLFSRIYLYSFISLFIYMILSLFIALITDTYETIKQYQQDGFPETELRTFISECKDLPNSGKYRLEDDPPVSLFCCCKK
Protocol: (§1) HEK-293 Trex cells were stably transfected with a construct consisting of the human coding sequence for TRPML1 cloned into the tet-inducible plasmid pCDNA5 T/O. Mutations were introduced into the TRPML1 sequence to facilitate expression on the cell surface (Silvia Vergarajauregui, Rosa Puertollano Traffic. 2006 March; 7(3): 337-353). Briefly, the cells are cultured in 150 mm round tissue culture dishes containing 20 mL of media. The day before the assay the cells are rinsed with DPBS-Ca-Mg and then treated briefly with Trypsin-EDTA. The Trypsin-EDTA is diluted with growth media, and cells are counted. 38×10^6 cells are re-plated into 150 mm round tissue culture dishes in media containing 0.5 μg/mL doxycycline to induce expression of hTRPML1.
(§2) The day of the experiment cells are lifted from the plates as above and collected by centrifugation. The cells are then suspended in dye loading buffer consisting of Ringer's solution supplemented with 0.1% Pluronic Acid and 1 micromolar Fluo4-AM dye. Cells are loaded for ~60 minutes in the dark with occasional mixing. The cells are collected by centrifugation, the loading media aspirated, and the cells resuspended in 25 mL Ringer's solution and incubated ~60 minutes in the dark. The cells are again collected by centrifugation, rinsed in Ringer's Solution and resuspended to 0.2×10^6 cells/mL in modified Ringer's solution containing 10 mM calcium.
(§3) Compounds are dissolved to a concentration of 10 millimolar with DMSO. Compound plates are created by dispensing compounds into 384 well black wall clear bottom plates (Greiner 781091). Positive and negative controls are included on each plate. Typically, different amounts of each compound are tested ranging from 100 nanoMoles (20 micromolar final concentration) decreasing in half-log steps to 31 picoMoles (6 nanomolar final concentration). Each concentration is typically tested in triplicate.
(§4) 50 microliters of dye-loaded cells are dispensed into each well of the compound assay plate created above. The fluorescence in each well is then determined with an excitation wavelength of 480 nm and an emission wavelength of 540 nm using either a Molecular Devices SpectraMax multimode plate reader or a Hamamatsu FDSS/uCell plate imager.
(§5) The resulting fluorescence for each well is exported as an ascii file and loaded into our LIMS for analysis. The percent activity of each compound at each concentration is determined by comparison to the positive and negative control wells included in each plate.
Assays for TRPML2 and TRPML3 were performed as above for TRPML1, by substituting the appropriate TRPML2 or TRPML3 subtype for the TRPML1.
(§6) EC50 values were calculated using a non-linear regression of Prism. In the table, “A” indicates an EC50 of less than 100 nM, “B” indicates an EC50 range from 100 nM to 500 nM: “C” indicates an EC50 range from 500 nM to 2 μM; and “D” indicates an EC50 greater than 2 μM.

Human TRPML1 = Human TRPML1 (Homo sapiens, UniProt Q9GZU1, L15A/L16A/L577A/L578A); experiment: Fluorescent TRPML1 assay (Fluo4-AM, HEK-293 Trex cells expressing hTRPML1); format: cell-based; conditions: fluorescent calcium assay, doxycycline-induced hTRPML1
Protocol: Example 27. Fluorescent TRPML Assays
as §1, §2, §3, §4, §5, §6

Human TRPML1, sequence (Q9GZU1 whole entry L15A/L16A/L577A/L578A): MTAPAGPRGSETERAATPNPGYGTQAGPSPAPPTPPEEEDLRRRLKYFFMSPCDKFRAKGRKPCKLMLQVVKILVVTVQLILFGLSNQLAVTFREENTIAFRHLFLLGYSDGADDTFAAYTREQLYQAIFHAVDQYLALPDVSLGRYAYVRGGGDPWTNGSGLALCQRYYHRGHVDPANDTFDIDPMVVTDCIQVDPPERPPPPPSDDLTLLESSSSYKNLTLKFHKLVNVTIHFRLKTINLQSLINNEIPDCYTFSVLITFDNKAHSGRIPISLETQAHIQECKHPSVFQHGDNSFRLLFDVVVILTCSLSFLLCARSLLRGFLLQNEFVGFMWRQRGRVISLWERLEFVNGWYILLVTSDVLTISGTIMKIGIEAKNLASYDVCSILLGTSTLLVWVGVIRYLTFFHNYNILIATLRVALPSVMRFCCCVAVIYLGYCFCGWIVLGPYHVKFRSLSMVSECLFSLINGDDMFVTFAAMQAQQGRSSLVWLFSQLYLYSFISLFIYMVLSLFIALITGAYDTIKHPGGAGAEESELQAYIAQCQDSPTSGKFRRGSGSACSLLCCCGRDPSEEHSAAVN

| SMILES | EC50 (Human TRPML3) [µM] | EC50 (Human TRPML1) [µM] |
| --- | --- | --- |
| CC(C)[C@H]1CN(C(=O)C(C)(C)O)[C@H](C)CN1c1ncnc2c1c(-c1ccccc1)cn2-c1cc(C#N)ccn1 [Compound 131, 2-(4-((2S,5R)-4-(2-hydroxy-2-methylpropanoyl)-2-isopropyl-5-methylpiperazin-1-yl)-5-phenyl-7H-pyrrolo[2,3-d]pyrimidin-7-yl)isonicotinonitrile] | 0.5 to 2 | 0.1 to 0.5 |
| C[C@@H]1CN(c2ncnc3c2c(-n2ccnc2)cn3-c2cc(C#N)ccn2)[C@@H](C)CN1C(=O)C(C)(C)O [Compound 132, 2-(4-((2S,5R)-4-(2-hydroxy-2-methylpropanoyl)-2,5-dimethylpiperazin-1-yl)-5-(1H-imidazol-1-yl)-7H-pyrrolo[2,3-d]pyrimidin-7-yl)isonicotinonitrile] | > 2 | > 2 |
| C[C@H]1CN(C(=O)C2(O)CCC2)CCN1c1ncnc2c1c(-c1ccccc1)cn2-c1cc(C#N)ccn1 [Compound 118, (S)-2-(4-(4-(1-hydroxycyclobutane-1-carbonyl)-2-methylpiperazin-1-yl)-5-phenyl-7H-pyrrolo[2,3-d]pyrimidin-7-yl)isonicotinonitrile] | 0.1 to 0.5 | 0.1 to 0.5 |
| C[C@H]1CN(C(=O)C(C)(C)O)[C@H](CO)CN1c1ncnc2c1c(-c1ccccc1F)cn2-c1cc(C#N)ccn1 [Compound 168, 2-(5-(2-fluorophenyl)-4-((2S,5S)-4-(2-hydroxy-2-methylpropanoyl)-5-(hydroxymethyl)-2-methylpiperazin-1-yl)-7H-pyrrolo[2,3-d]pyrimidin-7-yl)isonicotinonitrile] | > 2 | 0.5 to 2 |
| C[C@@H]1CN(c2ncnc3c2c(-c2ccns2)cn3-c2cc(C#N)ccn2)[C@@H](C)CN1C(=O)C(C)(C)O [Compound 153, 2-(4-((2S,5R)-4-(2-hydroxy-2-methylpropanoyl)-2,5-dimethylpiperazin-1-yl)-5-(isothiazol-5-yl)-7H-pyrrolo[2,3-d]pyrimidin-7-yl)isonicotinonitrile] | 0.5 to 2 | 0.5 to 2 |
| C[C@@H]1CN(c2ncnc3c2c(-c2ccncc2)cn3-c2cc(C#N)ccn2)[C@@H](C)CN1C(=O)C1(O)CC1 [Compound 149, 2-(4-((2S,5R)-4-(1-hydroxycyclopropane-1-carbonyl)-2,5-dimethylpiperazin-1-yl)-5-(pyridin-4-yl)-7H-pyrrolo[2,3-d]pyrimidin-7-yl)isonicotinonitrile] | > 2 | 0.5 to 2 |
| CC(C)[C@H]1CN(C(=O)C(C)(C)O)CCN1c1ncnc2c1c(-c1ccccc1)cn2-c1cc(C#N)ccn1 [Compound 112, (S)-2-(4-(4-(2-hydroxy-2-methylpropanoyl)-2-isopropylpiperazin-1-yl)-5-phenyl-7H-pyrrolo[2,3-d]pyrimidin-7-yl)isonicotinonitrile] | 0.5 to 2 | 0.5 to 2 |
| C[C@@H]1CN(c2ncnc3c2c(-c2ncco2)cn3-c2cc(C#N)ccn2)[C@@H](C)CN1C(=O)C(C)(C)O [Compound 134, 2-(4-((2S,5R)-4-(2-hydroxy-2-methylpropanoyl)-2,5-dimethylpiperazin-1-yl)-5-(oxazol-2-yl)-7H-pyrrolo[2,3-d]pyrimidin-7-yl)isonicotinonitrile] | > 2 | 0.5 to 2 |
| C[C@@H]1CN(c2ncnc3c2c(-c2ccccc2F)cn3-c2cc(C#N)ccn2)[C@@H](C)CN1C(=O)C(C)(O)CO (stereo partly drawn) [Compound 167, 2-(4-((2S,5R)-4-(2,3-dihydroxy-2-methylpropanoyl)-2,5-dimethylpiperazin-1-yl)-5-(2-fluorophenyl)-7H-pyrrolo[2,3-d]pyrimidin-7-yl)isonicotinonitrile] | 0.5 to 2 | 0.1 to 0.5 |
| C[C@@H]1CN(c2ncnc3c2c(-c2ccccc2)cn3-c2cc(C#N)ccn2)[C@@H](C)CN1C(=O)C1(O)CCC1 [Compound 109, 2-(4-((2S,5R)-4-(1-hydroxycyclobutane-1-carbonyl)-2,5-dimethylpiperazin-1-yl)-5-phenyl-7H-pyrrolo[2,3-d]pyrimidin-7-yl)isonicotinonitrile] | 0.5 to 2 | < 0.1 |
| C[C@@H]1CN(c2ncnc3c2c(C2CC2)cn3-c2cc(C#N)ccn2)[C@@H](C)CN1C(=O)CC(C)(C)O [Compound 160, 2-(5-cyclopropyl-4-((2S,5R)-4-(3-hydroxy-3-methylbutanoyl)-2,5-dimethylpiperazin-1-yl)-7H-pyrrolo[2,3-d]pyrimidin-7-yl)isonicotinonitrile] | 0.5 to 2 | 0.5 to 2 |

Other lines, results leading:

| EC50 (Human TRPML3) [µM] | EC50 (Human TRPML1) [µM] | SMILES |
| --- | --- | --- |
| > 2 | 0.1 to 0.5 | C[C@@H]1CN(c2ncnc3c2c(-c2ccccc2)cn3-c2cc(F)ccn2)[C@@H](C)CN1C(=O)C(C)(C)O [Compound 106, 1-((2R,5S)-4-(7-(4-fluoropyridin-2-yl)-5-phenyl-7H-pyrrolo[2,3-d]pyrimidin-4-yl)-2,5-dimethylpiperazin-1-yl)-2-hydroxy-2-methylpropan-1-one] |
| > 2 | > 2 | C[C@@H]1CN(c2nccc3c2c(-c2ccncc2)cn3-c2cccc(F)c2)[C@@H](C)CN1C(=O)C(C)(C)O [Compound 144, 1-((2R,5S)-4-(1-(3-fluorophenyl)-3-(pyridin-4-yl)-1H-pyrrolo[3,2-c]pyridin-4-yl)-2,5-dimethylpiperazin-1-yl)-2-hydroxy-2-methylpropan-1-one] |
| > 2 | > 2 | C[C@@H]1CN(c2ncnc3c2c(-c2ccncc2)cn3-c2cccc(F)c2)[C@@H](C)CN1C(=O)C(C)(C)O [Compound 139, 1-((2R,5S)-4-(7-(3-fluorophenyl)-5-(pyridin-4-yl)-7H-pyrrolo[2,3-d]pyrimidin-4-yl)-2,5-dimethylpiperazin-1-yl)-2-hydroxy-2-methylpropan-1-one] |
| > 2 | 0.5 to 2 | C[C@@H]1CN(c2ncnc3c2c(-c2ccncc2)cn3-c2cccc(Cl)c2)[C@@H](C)CN1C(=O)C(C)(C)O [Compound 137, 1-((2R,5S)-4-(7-(3-chlorophenyl)-5-(pyridin-4-yl)-7H-pyrrolo[2,3-d]pyrimidin-4-yl)-2,5-dimethylpiperazin-1-yl)-2-hydroxy-2-methylpropan-1-one] |
| > 2 | 0.5 to 2 | C[C@@H]1CN(c2ncnc3c2c(-c2cccnc2)cn3-c2cc(C#N)ccn2)[C@@H](C)CN1C(=O)C(C)(C)O [Compound 115, 2-(4-((2S,5R)-4-(2-hydroxy-2-methylpropanoyl)-2,5-dimethylpiperazin-1-yl)-5-(pyridin-3-yl)-7H-pyrrolo[2,3-d]pyrimidin-7-yl)isonicotinonitrile] |
| > 2 | > 2 | C[C@@H]1CN(c2nccc3c2c(-c2ccncc2)cn3-c2cc(F)ccn2)[C@@H](C)CN1C(=O)C(C)(C)O [Compound 141, 1-((2R,5S)-4-(1-(4-fluoropyridin-2-yl)-3-(pyridin-4-yl)-1H-pyrrolo[3,2-c]pyridin-4-yl)-2,5-dimethylpiperazin-1-yl)-2-hydroxy-2-methylpropan-1-one] |
| > 2 | > 2 | C[C@@H]1CN(c2ncnc3c2c(-c2cncnc2)cn3-c2cc(C#N)ccn2)[C@@H](C)CN1C(=O)C(C)(C)O [Compound 116, 2-(4-((2S,5R)-4-(2-hydroxy-2-methylpropanoyl)-2,5-dimethylpiperazin-1-yl)-5-(pyrimidin-5-yl)-7H-pyrrolo[2,3-d]pyrimidin-7-yl)isonicotinonitrile] |
